In ChEMBL document CHEMBL1142557, “Novel bioactive sulfated alkene and alkanes from the mediterranean ascidian Halocynthia papillosa” (J Nat Prod, 2000):
Values after ≈ are worked out from the molar mass of the structure shown. Active and inactive are the calls of the source. The rule behind the calls is not given here.

Experiments:
[1] = test system: WEHI-164; assay: Cytotoxicity against mouse WEHI164 cells assessed as cell viability after 96 hrs by MTT assay; type: functional, cell-based; details: WEHI-164, 96 h
[2] = test system: C6; assay: Cytotoxicity against rat C6 cells assessed as cell viability after 96 hrs by MTT assay; type: functional, cell-based; details: for IC50: C6, 96 h

Structure (SMILES)	IC50 [1] [µg/mL]	IC50 [2] [µg/mL]	Activity [2]
CC(C)CCCCCOS(=O)(=O)O	15 (≈ 71.3 µM)	545 (≈ 2590 µM)	
Sc1ncnc2nc[nH]c12 [MERCAPTOPURINE ANHYDROUS]	1.3 (≈ 8.54 µM)	30.2 (≈ 198 µM)	
CCC=CCCCCOS(=O)(=O)O	12.2 (≈ 58.6 µM)	515 (≈ 2470 µM)	
CC(C)CCC[C@@H](C)COS(=O)(=O)O	20.9 (≈ 93.2 µM)		inactive
